Assay results published in patent EP0550775A1, “Cephalosporin derivatives” (F. HOFFMANN-LA ROCHE AG, priority 1992, dated 1993).
Where a name gives a salt, the structure may show the parent alone.

Legend:
[1] = Chemical stability (half-life) in phosphate buffer by HPLC; type: physicochemical; settings: pH 7.4, phosphate buffer (pH7.40; 37°C)
Procedure: Chemical stability (half-life) in phosphate buffer (pH 7.40; 37°C) of some of the compounds of the present invention was determined using high performance liquid chromatography (HPLC). A Hamilton PRP-1 (250 mm x 4.1 mm) column was used with UV detection at 280 nm. The mobile phase used consisted of a 0.01 M solution of tetradecyltrimethylammonium bromide in a mixture of 70% 0.072M phosphate buffer (pH 8.2) and 30% acetonitrile. In some experiments, minor adjustments to the pH and in the acetonitrile concentration were made to improve resolutions.

Ser. marcescens SM = assay: In vitro MIC, Agar Dilution Method; type: cell-based; settings: Serratia marcescens, read-out: MIC
Procedure: (§1) In vitro activity of the compounds of the present invention was measured by the Minimum Inhibitory Concentration (MIC) in micrograms/ml utilizing the Agar Dilution Method, which is well known in the art, against a variety of gram-negative and gram-positive organisms.

Enter. cloacae 5699 = assay: In vitro MIC, Agar Dilution Method; type: cell-based; settings: Enterobacter cloacae; Enter. cloacae 5699; agar dilution; read-out: MIC
Procedure: as §1

Staph. aureus 753 = assay: In vitro MIC, Agar Dilution Method; type: cell-based; settings: Staphylococcus aureus, read-out: MIC
Procedure: as §1

Prot. vulgaris ATCC 6380 = assay: In vitro MIC, Agar Dilution Method; type: cell-based; settings: Proteus vulgaris, ATCC6380, read-out: MIC
Procedure: as §1

K. pneumoniae A = assay: In vitro MIC, Agar Dilution Method; type: cell-based; settings: Klebsiella pneumoniae; K. pneumoniae A; agar dilution; read-out: MIC
Procedure: as §1

Staph. aureus ATCC 29213 = assay: In vitro MIC, Agar Dilution Method; type: cell-based; settings: Staphylococcus aureus, ATCC29213, read-out: MIC
Procedure: as §1

Ser. marcescens 1071 = assay: In vitro MIC, Agar Dilution Method; type: cell-based; settings: Serratia marcescens; Ser. marcescens 1071; agar dilution; read-out: MIC
Procedure: as §1

Str. pneumoniae 6301 = assay: In vitro MIC, Agar Dilution Method; type: cell-based; settings: Streptococcus pneumoniae; Str. pneumoniae 6301; agar dilution; read-out: MIC
Procedure: as §1

Str. faecalis ATCC 29212 = assay: In vitro MIC, Agar Dilution Method; type: cell-based; settings: Enterococcus faecalis, ATCC29212; Str. faecalis ATCC 29212; agar dilution; read-out: MIC
Procedure: as §1

Prot. vulgaris 1028 BC = assay: In vitro MIC, Agar Dilution Method; type: cell-based; settings: Proteus vulgaris, read-out: MIC
Procedure: as §1

Prot. mirabilis 90 = assay: In vitro MIC, Agar Dilution Method; type: cell-based; settings: Proteus mirabilis; Prot. mirabilis 90; agar dilution; read-out: MIC
Procedure: as §1

Staph. aureus 67 = assay: In vitro MIC, Agar Dilution Method; type: cell-based; settings: Staphylococcus aureus; Staph. aureus 67; agar dilution; read-out: MIC
Procedure: as §1

Cit. freundi BS-16 = assay: In vitro MIC, Agar Dilution Method; type: cell-based; settings: read-out: MIC
Procedure: as §1

Staph. aureus 1059B = assay: In vitro MIC, Agar Dilution Method; type: cell-based; settings: Staphylococcus aureus, read-out: MIC
Procedure: as §1

Ps. aeruginosa 5712 = assay: In vitro MIC, Agar Dilution Method; type: cell-based; settings: Pseudomonas aeruginosa, read-out: MIC
Procedure: as §1

Str. pyogenes 4 = assay: In vitro MIC, Agar Dilution Method; type: cell-based; settings: Streptococcus pyogenes; Str. pyogenes 4; agar dilution; read-out: MIC
Procedure: as §1

Ps. aeruginosa 8780 = assay: In vitro MIC, Agar Dilution Method; type: cell-based; settings: Pseudomonas aeruginosa, read-out: MIC
Procedure: as §1

Ps. aeruginosa 18SH = assay: In vitro MIC, Agar Dilution Method; type: cell-based; settings: Pseudomonas aeruginosa, read-out: MIC
Procedure: as §1

Ps. aeruginosa 765 = assay: In vitro MIC, Agar Dilution Method; type: cell-based; settings: Pseudomonas aeruginosa, read-out: MIC
Procedure: as §1

Staph. aureus Smith = assay: In vitro MIC, Agar Dilution Method; type: cell-based; settings: Staphylococcus aureus, read-out: MIC
Procedure: as §1

[2] = test system: Ps. aeruginosa ATCC 27853; assay: In vitro MIC, Agar Dilution Method; type: cell-based; settings: Pseudomonas aeruginosa, ATCC27853, read-out: MIC
Procedure: as §1

E. coli TEM-1 = assay: microbe, parasite or virus in culture; type: cell-based; settings: Escherichia coli, agar dilution, read-out: MIC
Procedure: as §1

Enter. cloacae P99 = assay: microbe, parasite or virus in culture; type: cell-based; settings: Enterobacter cloacae, agar dilution, read-out: MIC
Procedure: as §1

E. coli 257 = assay: microbe, parasite or virus in culture; type: cell-based; settings: Escherichia coli, agar dilution, read-out: MIC
Procedure: as §1

E. coli ATCC 25922 = assay: microbe, parasite or virus in culture; type: cell-based; settings: Escherichia coli, ATCC25922, agar dilution, read-out: MIC
Procedure: as §1

CCN1CCN(C(=O)N[C@@H](C(=O)N[C@@H]2C(=O)N3C(C(=O)O)=C(CN4CCN(c5cc6c(cc5F)c(=O)c(C(=O)O)cn6C5CC5)CC4)CS[C@H]23)c2ccc(O)cc2)C(=O)C1=O [Compound E, [6R-[6α,7β(R)]]-3-[[4-(3-Carboxy-1-cyclopropyl-6-fluoro-1,4-dihydro-4-oxo-7-quinolinyl)-1-piperazinyl]methyl]-7-[[[[(4-ethyl-2,3-dioxo-1-piperazinyl)carbonyl]amino](4-hydroxyphenyl)acetyl]amino]-8-oxo-5-thia-1-azabicyclo[4.2.0]oct-2-ene-2-carboxylic acid trfluoroacetic acid salt]
half-life [1]: 60 h
MIC (Ser. marcescens SM): 250 µg/mL
MIC (Enter. cloacae 5699): 125 µg/mL
MIC (Staph. aureus 753): 2000 µg/mL
MIC (Prot. vulgaris ATCC 6380): 125 µg/mL
MIC (K. pneumoniae A): 500 µg/mL
MIC (Staph. aureus ATCC 29213): 2000 µg/mL
MIC (Ser. marcescens 1071): 250 µg/mL
MIC (Str. pneumoniae 6301): 125 µg/mL
MIC (Str. faecalis ATCC 29212): 16000 µg/mL
MIC (Prot. vulgaris 1028 BC): 62.5 µg/mL
MIC (Prot. mirabilis 90): 1000 µg/mL
MIC (Staph. aureus 67): 16000 µg/mL
MIC (Cit. freundi BS-16): 62.5 µg/mL
MIC (Staph. aureus 1059B): 2000 µg/mL
MIC (Ps. aeruginosa 5712): 32000 µg/mL
MIC (Str. pyogenes 4): 125 µg/mL
MIC (Ps. aeruginosa 8780): 8000 µg/mL
MIC (Ps. aeruginosa 18SH): 2000 µg/mL
MIC (Ps. aeruginosa 765): 4000 µg/mL
MIC (Staph. aureus Smith): 2000 µg/mL
MIC [2]: 8000 µg/mL
MIC (E. coli TEM-1): 31.3 µg/mL
MIC (Enter. cloacae P99): ≤ 15.7 µg/mL
MIC (E. coli 257): ≤ 15.7 µg/mL
MIC (E. coli ATCC 25922): ≤ 15.7 µg/mL
